± gives the expanded uncertainty stated by the source.
Assay: mn = molality of the nth substance listed, in mol/kg
Details: Liquid, Vibrating tube method

[I-].[K+] [potassium iodide] + O
mass density [kg/m3]
Details	283.15 K	298.12 K	323.07 K	348.04 K	372.99 K	397.97 K	422.94 K	447.94 K	472.96 K
1050 kPa, m1 = 0.669	1078.98 ± 0.14	1074.75 ± 0.15	1064.04 ± 0.14	1049.72 ± 0.14	1032.6 ± 0.13	1012.71 ± 0.13	990.31 ± 0.13	965.35 ± 0.14	–
1050 kPa, m1 = 0.9	–	1100.27 ± 0.15	1088.99 ± 0.15	1074.24 ± 0.14	1056.8 ± 0.14	1036.96 ± 0.13	1014.85 ± 0.13	990.56 ± 0.13	–
1050 kPa, m1 = 1.063	1122.95 ± 0.16	1117.9 ± 0.16	1106.19 ± 0.15	1091.2 ± 0.14	1073.46 ± 0.14	1053.24 ± 0.13	1030.64 ± 0.13	1005.63 ± 0.12	–
10020 kPa, m1 = 0.669	1083.16 ± 0.17	1078.81 ± 0.17	1067.95 ± 0.16	1053.73 ± 0.15	1036.79 ± 0.14	1017.19 ± 0.13	995.34 ± 0.13	970.94 ± 0.15	944.19 ± 0.17
10020 kPa, m1 = 0.9	–	1104.27 ± 0.19	1092.94 ± 0.18	1078.29 ± 0.17	1061.02 ± 0.16	1041.47 ± 0.14	1019.62 ± 0.13	996.18 ± 0.13	–
10020 kPa, m1 = 1.063	1127.11 ± 0.21	1121.98 ± 0.2	1110.17 ± 0.19	1095.23 ± 0.18	1077.72 ± 0.17	1057.79 ± 0.15	1035.74 ± 0.14	1011.23 ± 0.13	984.84 ± 0.14
19970 kPa, m1 = 0.669	1087.75 ± 0.21	1083.04 ± 0.21	1072.19 ± 0.19	1057.99 ± 0.17	1041.3 ± 0.16	1022.06 ± 0.14	1000.61 ± 0.13	976.95 ± 0.15	950.96 ± 0.19
19970 kPa, m1 = 0.9	–	1108.67 ± 0.24	1097.21 ± 0.22	1082.62 ± 0.2	1065.55 ± 0.18	1046.32 ± 0.16	1024.97 ± 0.14	1002.22 ± 0.13	–
19970 kPa, m1 = 1.063	1131.7 ± 0.27	1126.32 ± 0.26	1114.52 ± 0.24	1099.65 ± 0.22	1082.29 ± 0.2	1062.77 ± 0.18	1041.07 ± 0.16	1017.26 ± 0.13	991.38 ± 0.14
29900 kPa, m1 = 0.669	1092.18 ± 0.26	1087.37 ± 0.25	1076.42 ± 0.23	1062.23 ± 0.2	1045.73 ± 0.18	1026.71 ± 0.15	1005.73 ± 0.13	982.65 ± 0.15	957.4 ± 0.2
29900 kPa, m1 = 0.9	–	1112.93 ± 0.3	1101.41 ± 0.27	1086.89 ± 0.25	1070.01 ± 0.22	1050.95 ± 0.19	1030.16 ± 0.16	1007.94 ± 0.14	–
29900 kPa, m1 = 1.063	1136.2 ± 0.34	1130.67 ± 0.33	1118.76 ± 0.3	1103.95 ± 0.28	1086.83 ± 0.25	1067.47 ± 0.21	1046.25 ± 0.18	1022.96 ± 0.15	997.97 ± 0.13
39830 kPa, m1 = 0.669	1096.51 ± 0.31	1091.56 ± 0.3	1080.45 ± 0.27	1066.38 ± 0.24	1050.01 ± 0.21	1031.29 ± 0.17	1010.72 ± 0.14	988.1 ± 0.15	963.57 ± 0.2
39830 kPa, m1 = 0.9	–	1117.15 ± 0.36	1105.46 ± 0.33	1091.06 ± 0.3	1074.32 ± 0.26	1055.56 ± 0.22	1035.28 ± 0.18	1013.36 ± 0.15	–
39830 kPa, m1 = 1.063	1140.54 ± 0.41	1134.96 ± 0.4	1122.89 ± 0.37	1108.16 ± 0.34	1091.17 ± 0.3	1072.16 ± 0.25	1051.3 ± 0.21	1028.47 ± 0.17	1004.2 ± 0.13
49760 kPa, m1 = 0.669	1100.74 ± 0.36	1095.69 ± 0.35	1084.42 ± 0.32	1070.32 ± 0.28	1054.18 ± 0.24	1035.78 ± 0.19	1015.55 ± 0.15	993.34 ± 0.14	969.44 ± 0.2
49760 kPa, m1 = 0.9	–	1121.3 ± 0.43	1109.41 ± 0.39	1095.03 ± 0.35	1078.51 ± 0.3	1060.02 ± 0.25	1040.03 ± 0.21	1018.68 ± 0.16	–
49760 kPa, m1 = 1.063	1144.78 ± 0.49	1139.11 ± 0.48	1126.88 ± 0.44	1112.21 ± 0.4	1095.44 ± 0.35	1076.71 ± 0.3	1056.19 ± 0.25	1033.81 ± 0.19	1010.14 ± 0.15
59680 kPa, m1 = 0.669	1104.92 ± 0.43	1099.67 ± 0.41	1088.3 ± 0.37	1074.35 ± 0.33	1058.24 ± 0.27	1040.1 ± 0.22	1020.17 ± 0.17	998.49 ± 0.14	975.11 ± 0.2
59680 kPa, m1 = 0.9	–	1125.31 ± 0.5	1113.37 ± 0.46	1099.04 ± 0.41	1082.5 ± 0.35	1064.32 ± 0.3	1044.78 ± 0.24	1023.8 ± 0.18	–
59680 kPa, m1 = 1.063	1149.02 ± 0.58	1143.14 ± 0.56	1130.86 ± 0.52	1116.3 ± 0.47	1099.61 ± 0.41	1081.09 ± 0.35	1060.87 ± 0.29	1038.97 ± 0.22	1015.81 ± 0.16
68120 kPa, m1 = 0.669	1108.52 ± 0.48	1103 ± 0.46	1091.53 ± 0.42	1077.66 ± 0.37	1061.64 ± 0.31	1043.65 ± 0.25	1024 ± 0.19	1002.64 ± 0.14	979.68 ± 0.19
68120 kPa, m1 = 0.9	–	1128.62 ± 0.56	1116.58 ± 0.51	1102.03 ± 0.46	1085.89 ± 0.4	1067.94 ± 0.33	1048.68 ± 0.27	1027.98 ± 0.2	–
68120 kPa, m1 = 1.063	1152.59 ± 0.65	1146.49 ± 0.63	1134.11 ± 0.58	1119.62 ± 0.53	1103.03 ± 0.46	1084.7 ± 0.4	1064.81 ± 0.32	1043.19 ± 0.25	1020.4 ± 0.18

Reference: the NIST ThermoML archive (doi:10.1021/je2013704)
